Laboratory results reported in patent publication US11518758B2, “Heteroarylaminopyrimidine amide autophagy inhibitors and methods of use thereof” (Deciphera Pharmaceuticals, LLC, priority 2019, dated 2022).

Assays:
[1] = target: T1, LRRK2 kinase (Homo sapiens, UniProt Q5S007); experiment: Biochemical assay for LRRK2 (coupled pyruvate kinase/lactate dehydrogenase assay); conditions: 26.4 nM LRRK2 (residues 970-2528), 0.1 mM peptide substrate, 1 mM ATP
T1 construct: purchased Thermo Fisher
Method: Example 182. Biochemical Assay for LRRK2 (SEQ. ID NO. 4)
Activity of LRRK2 kinase was determined spectroscopically using a coupled pyruvate kinase/lactate dehydrogenase assay that continuously monitors the ATP hydrolysis-dependent oxidation of NADH (e.g., Schindler et al. Science (2000) 289: 1938-1942). Assays were conducted in 384-well plates (100 uL final volume) using 26.4 nM LRRK2 (Thermo Fisher), 0.1 mM peptide substrate (RLGRDKYKTLRQIRQ (SEQ ID NO: 6)), 1.5 units pyruvate kinase, 2.1 units lactate dehydrogenase, 1 mM phosphoenol pyruvate, 0.28 mM NADH and 1 mM ATP in assay buffer (100 mM Tris, pH 7.5, 15 mM MgCl2, 0.5 mM DTT, 0.004% (w/v) BSA, and 0.004% Triton X-100). Inhibition of LRRK2 was measured by adding serial diluted test compound (final assay concentration of 1% DMSO). A decrease in absorption at 340 nm was monitored continuously for 6 hours at 30° C. on a multi-mode microplate reader (BioTek). The reaction rate was calculated using the 2-3 h time frame. The reaction rate at each concentration of compound was converted to percent inhibition using controls (i.e. reaction with no test compound and reaction with a known inhibitor) and IC50 values were calculated using software routines in Prism (GraphPad software).

[2] = target: T2, ULK1 kinase (Homo sapiens, UniProt O75385); experiment: Biochemical assay for ULK1.2 (coupled pyruvate kinase/lactate dehydrogenase assay); conditions: 19 nM ULK1 (Eurofins), myelin basic protein, 1 mM ATP
T2 construct: purchased Eurofins 14-959
T2 sequence (O75385 with tags, fused parts or gaps): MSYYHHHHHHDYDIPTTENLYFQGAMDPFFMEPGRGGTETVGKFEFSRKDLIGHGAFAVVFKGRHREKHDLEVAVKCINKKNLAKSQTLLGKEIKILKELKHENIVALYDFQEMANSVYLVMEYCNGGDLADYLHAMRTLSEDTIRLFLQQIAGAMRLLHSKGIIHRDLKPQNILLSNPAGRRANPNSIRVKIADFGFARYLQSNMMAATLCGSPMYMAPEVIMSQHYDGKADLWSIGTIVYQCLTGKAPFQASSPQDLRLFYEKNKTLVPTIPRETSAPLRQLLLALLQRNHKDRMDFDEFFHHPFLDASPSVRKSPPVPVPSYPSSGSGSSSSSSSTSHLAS
Method: Example 174. Biochemical Assay for ULK1.2
Activity of ULK1 kinase was determined spectroscopically using a coupled pyruvate kinase/lactate dehydrogenase assay that continuously monitors the ATP hydrolysis-dependent oxidation of NADH (e.g., Schindler et al. Science (2000) 289: 1938-1942). Assays were conducted in 384-well plates (100 uL final volume) using 19 nM ULK1 (Eurofins CAT #14-959), 0.25 mg/mL myelin basic protein, 1.5 units pyruvate kinase, 2.1 units lactate dehydrogenase, 1 mM phosphoenol pyruvate, 0.28 mM NADH and 1 mM ATP in assay buffer (100 mM Tris, pH 7.5, 15 mM MgCl2, 0.5 mM DTT, 0.1% octyl-glucoside, 0.002% (w/v) BSA, and 0.002% Triton X-100). Inhibition of ULK1 was measured by adding serial diluted test compound (final assay concentration of 1% DMSO). A decrease in absorption at 340 nm was monitored continuously for 6 hours at 30° C. on a multi-mode microplate reader (BioTek). The reaction rate was calculated using the 2-3 h time frame. The reaction rate at each concentration of compound was converted to percent inhibition using controls (i.e. reaction with no test compound and reaction with a known inhibitor) and IC50 values were calculated by fitting a four-parameter sigmoidal curve to the data using Prism (GraphPad software).

[3] = tested on: phospho-Serine 318 ATG13 (pATG13), ULK kinase substrate, in A549 (KRAS mutant) cells; experiment: pATG13 levels of mutant KRas A549 cells after treatment with ULK inhibitors in combination with trametinib (ELISA); assay type: cell-based, human; conditions: with 250 nM trametinib
Method: Example 177. Cellular Inhibition of ULK Kinase Substrate ATG13 Protein pATG13 Levels of Mutant KRas A549 Cells after Treatment with ULK Inhibitors in Combination with Trametinib
A549 (KRAS mutant) human lung cancer cells (6,000 cells/well) were added to a 384-well tissue-culture treated plate in 50 μL of pre-warmed DMEM medium supplemented with 10% characterized fetal bovine serum (Invitrogen, Carlsbad, Calif.), 100 units/mL penicillin G, and 100 μg/mL streptomycin and allowed to grow overnight at 37° C., 5% CO2, and 95% humidity. The following day, 10 μL of media containing trametinib or DMSO as a control was added to wells. The final concentration of trametinib in wells was 250 nM. A dose response of a test compound (0.6 μL per well) was added. DMSO (0.6 μL) was added to control wells. The plate was briefly shaken to mix wells and then incubated at 37° C. overnight. The next day, the media was aspirated and cells were washed with Dulbecco's Phosphate Buffered Saline (Gibco). Cells were lysed using MPER lysis buffer (Pierce, Rockford, Ill.) containing Halt Phosphatase and Protease Inhibitors (Pierce, Rockford, Ill.) and Phosphatase inhibitor cocktail 2 (Sigma, St. Louis, Mo.) at 4° C. for 10 minutes with shaking.
Cellular levels of phospho-Serine 318 ATG13 (pATG13) were measured via an ELISA method. Total ATG13 Antibody (Cell Signaling Cat #13273) was used to coat the wells. The plate was incubated at 4° C. overnight and washed with ELISA wash buffer (Biolegend Cat #421601). The wells were then blocked with assay diluent (Biolegend Cat #421203) for 1 hour at room temperature. Plate wells were washed with ELISA wash buffer. Cell lysate was added to wells and incubated at room temperature for 2 hours. Plate wells were washed with ELISA wash buffer. Biotinylated pS318-ATG13 antibody (Rockland Immunochemicals Cat #600-401-C49) was diluted in assay diluent and added to each well and incubated at room temperature for 1 hour. Plate wells were washed with ELISA wash buffer. Streptavidin linked to horseradish peroxidase (Thermo Fisher Cat #21140) was diluted in assay diluent and added to each well and incubated at room temperature for 1 hour. Plate wells were washed with ELISA wash buffer. High sensitivity TMB substrate (Biolegend Cat #421101) was added to each well and incubated at room temperature for 20 minutes. The reaction was stopped with 2N Sulfuric Acid. The plate was analyzed at on a plate reader measuring absorbance at 450 nm and 540 nm (background). Signal was calculated by first subtracting the background absorbance at 540 nm from the absorbance at 450 nm for each well. Next, the background corrected absorbance at 450 nm from blank wells was subtracted from test wells. Data was compared to control wells to determine % ATG13 phosphorylation. GraphPad Prism was used to calculate IC50 values.

T1 sequence (Q5S007 with tags, fused parts or gaps): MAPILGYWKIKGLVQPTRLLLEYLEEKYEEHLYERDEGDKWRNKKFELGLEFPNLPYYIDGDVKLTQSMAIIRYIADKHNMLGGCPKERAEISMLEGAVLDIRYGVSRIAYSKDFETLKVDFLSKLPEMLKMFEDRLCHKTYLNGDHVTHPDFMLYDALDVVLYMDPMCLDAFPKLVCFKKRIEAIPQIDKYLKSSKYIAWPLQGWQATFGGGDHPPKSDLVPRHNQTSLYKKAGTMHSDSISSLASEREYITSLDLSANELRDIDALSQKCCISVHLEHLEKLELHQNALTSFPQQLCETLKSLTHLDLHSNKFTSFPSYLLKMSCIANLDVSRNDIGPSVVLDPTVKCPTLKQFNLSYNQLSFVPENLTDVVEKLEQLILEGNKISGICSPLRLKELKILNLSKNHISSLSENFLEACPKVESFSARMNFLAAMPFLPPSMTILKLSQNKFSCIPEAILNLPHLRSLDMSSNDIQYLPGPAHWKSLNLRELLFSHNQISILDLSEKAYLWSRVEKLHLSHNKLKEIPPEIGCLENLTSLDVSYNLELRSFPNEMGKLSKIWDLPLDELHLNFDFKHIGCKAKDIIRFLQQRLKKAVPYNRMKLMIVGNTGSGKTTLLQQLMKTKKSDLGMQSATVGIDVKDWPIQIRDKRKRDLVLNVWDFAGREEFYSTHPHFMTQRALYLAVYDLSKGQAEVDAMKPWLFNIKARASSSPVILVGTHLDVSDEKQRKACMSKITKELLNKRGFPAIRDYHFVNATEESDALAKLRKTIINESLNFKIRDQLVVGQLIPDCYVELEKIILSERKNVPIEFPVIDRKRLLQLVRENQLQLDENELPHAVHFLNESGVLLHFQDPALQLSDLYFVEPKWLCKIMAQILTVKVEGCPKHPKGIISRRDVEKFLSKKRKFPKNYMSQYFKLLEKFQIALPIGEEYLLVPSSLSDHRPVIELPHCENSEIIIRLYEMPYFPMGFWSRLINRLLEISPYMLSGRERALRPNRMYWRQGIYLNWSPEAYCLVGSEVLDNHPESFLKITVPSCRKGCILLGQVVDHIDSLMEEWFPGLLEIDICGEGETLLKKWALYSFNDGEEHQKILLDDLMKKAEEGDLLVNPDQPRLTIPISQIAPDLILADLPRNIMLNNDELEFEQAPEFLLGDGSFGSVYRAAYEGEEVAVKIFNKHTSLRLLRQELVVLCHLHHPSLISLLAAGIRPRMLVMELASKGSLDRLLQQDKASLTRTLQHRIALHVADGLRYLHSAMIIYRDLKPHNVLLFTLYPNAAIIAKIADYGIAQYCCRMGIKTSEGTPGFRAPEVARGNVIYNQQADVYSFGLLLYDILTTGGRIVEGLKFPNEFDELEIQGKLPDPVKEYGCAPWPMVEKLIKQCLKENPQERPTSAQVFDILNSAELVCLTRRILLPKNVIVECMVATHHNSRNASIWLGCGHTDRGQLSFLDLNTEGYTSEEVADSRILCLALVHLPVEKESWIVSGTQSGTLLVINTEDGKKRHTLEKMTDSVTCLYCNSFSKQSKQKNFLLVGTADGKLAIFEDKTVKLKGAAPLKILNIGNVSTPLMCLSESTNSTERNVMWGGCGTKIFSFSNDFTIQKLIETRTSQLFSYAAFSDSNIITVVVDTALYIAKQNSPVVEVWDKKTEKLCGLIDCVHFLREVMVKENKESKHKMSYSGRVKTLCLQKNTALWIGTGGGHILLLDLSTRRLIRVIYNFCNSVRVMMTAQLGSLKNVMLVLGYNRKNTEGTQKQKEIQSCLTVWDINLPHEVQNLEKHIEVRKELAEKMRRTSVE

| IC50 [1] | IC50 [2] | IC50 [3] | SMILES |
| --- | --- | --- | --- |
| > 600 nM | > 500 nM | – | CC(C)CN1CC(n2cc(Nc3ncc(Cl)c(NCCCN4CCCC4=O)n3)cn2)C1 [Example 159] |
| > 600 nM | 100 to 500 nM | – | Cc1nn(C2CCN(C)CC2)cc1Nc1ncc(Cl)c(NCCCN2CCCCC2=O)n1 [Example 56] |
| – | 1 to 25 nM | > 600 nM | Cc1nn(C2CCNCC2)cc1Nc1ncc(I)c(NCCCN2CCCCC2=O)n1 [Example 48] |
| > 600 nM | 100 to 500 nM | – | Cc1nn(C2CCN(C)CC2)cc1Nc1ncc(Cl)c(NCCCN2CCOCCC2=O)n1 [Example 132] |
| – | 25 to 100 nM | 300 to 600 nM | CC(C)CN1CC(n2cc(Nc3ncc(C(F)(F)F)c(NCCCN4CCCCC4=O)n3)cn2)C1 [Example 12] |
| 300 to 600 nM | > 500 nM | – | C[C@@H](CCNc1nc(Nc2cnn(C3CCN(C4CC4)CC3)c2)ncc1Cl)N1CCCC1=O [Example 156] |
| > 600 nM | 100 to 500 nM | – | CCN1CC[C@H](n2cc(Nc3ncc(C(F)(F)F)c(NCCCN4CCCC4=O)n3)c(C)n2)C1 [Example 168] |
| > 600 nM | 100 to 500 nM | – | CCc1nn(C2CCNCC2)cc1Nc1ncc(Cl)c(NCCCN2CCCCC2=O)n1 [Example 39] |
| – | 1 to 25 nM | 10 to 100 nM | CCC(C)N1CCC(n2cc(Nc3ncc(C(F)(F)F)c(NCCCN4CCCCCC4=O)n3)c(C)n2)CC1 (stereo not shown) [Example 94] |
| – | 25 to 100 nM | > 600 nM | CC(C)N1CCC(n2cc(Nc3ncc(C(F)(F)F)c(NCCCN4CCOCC4=O)n3)cn2)CC1 [Example 74] |
| > 600 nM | > 500 nM | – | Cc1nn(CCN2CCOCC2)cc1Nc1ncc(C(F)(F)F)c(NCCCN2CCCCC2=O)n1 [Example 29] |
| 300 to 600 nM | 100 to 500 nM | – | CC(C)CN1CC(n2cc(Nc3ncc(C(F)(F)F)c(NCCCN4CCCC4=O)n3)cn2)C1 [Example 170] |
| 300 to 600 nM | 100 to 500 nM | – | Cc1nn([C@@H]2CCNC2)cc1Nc1ncc(Br)c(NCCCN2CCCC2=O)n1 [Example 164] |
| 300 to 600 nM | 100 to 500 nM | – | CC1(C)CCN(CCCNc2nc(Nc3cnn(C4CCN(C5CC5)CC4)c3)ncc2Br)C1=O [Example 153] |
| 300 to 600 nM | 100 to 500 nM | – | CC(C)CN1CC(n2cc(Nc3ncc(Br)c(NCCCN4CCCC4=O)n3)cn2)C1 [Example 165] |
| > 600 nM | 100 to 500 nM | – | Cc1nn(CCN2CCCC2)cc1Nc1ncc(C(F)(F)F)c(NCCCN2CCCCC2=O)n1 [Example 45] |
| – | 25 to 100 nM | 100 to 300 nM | Cc1nn(C2CCN(C)CC2)cc1Nc1ncc(C(F)(F)F)c(NCCCN2CCN(C)C2=O)n1 [Example 152] |
| – | 1 to 25 nM | 10 to 100 nM | CCN1CCC(n2cc(Nc3ncc(C(F)(F)F)c(NCCCN4CCCCCC4=O)n3)c(C)n2)CC1 [Example 90, 1-(3-((2-((1-(1-ethylpiperidin-4-yl)-3-methyl-1H-pyrazol-4-yl)amino)-5-(trifluoromethyl)pyrimidin-4-yl)amino)propyl)azepan-2-one] |

| IC50 [1] | IC50 [2] | IC50 [3] | SMILES |
| --- | --- | --- | --- |
| 100 to 300 nM | 100 to 500 nM | – | CC1CCC(=O)N1CCCNc1nc(Nc2cnn(C3CCN(C4CC4)CC3)c2)ncc1Cl (stereo not shown) [Example 150] |
| – | 1 to 25 nM | 100 to 300 nM | [2H]C([2H])([2H])C([2H])(N1CCC(n2cc(Nc3ncc(C(F)(F)F)c(NCCCN4CCCCC4=O)n3)cn2)CC1)C([2H])([2H])[2H] [Example 13] |
| > 600 nM | 100 to 500 nM | – | Cc1nn(CCN2CCCC2)cc1Nc1ncc(Br)c(NCCCN2CCCCC2=O)n1 [Example 62] |
| > 600 nM | 25 to 100 nM | – | Cc1nn(C2CN(CC(C)C)C2)cc1Nc1ncc(C(F)(F)F)c(NCCCN2CCCCC2=O)n1 [Example 23] |
| – | 25 to 100 nM | 100 to 300 nM | CC(C)CN1CC(n2cc(Nc3ncc(Br)c(NCCCN4CCCCC4=O)n3)cn2)C1 [Example 17] |
| – | 1 to 25 nM | > 600 nM | O=C1CCCCN1CCCNc1nc(Nc2cnn(C3CCNCC3)c2)ncc1Br [Example 9] |
| – | 1 to 25 nM | 10 to 100 nM | O=C1CCCCN1CCCNc1nc(Nc2cnn(C3CCN(CC4CC4)CC3)c2)ncc1Cl [Example 3] |
| > 600 nM | > 500 nM | – | CC1(C)CCC(=O)N1CCCNc1nc(Nc2cnn(C3CCN(C4CC4)CC3)c2)ncc1C1CC1 [Example 69] |
| > 600 nM | > 500 nM | – | Cc1nn(C2CN(CC(C)C)C2)cc1Nc1ncc(Cl)c(NCCCN2CCCCC2=O)n1 [Example 38] |
| > 600 nM | > 500 nM | – | C[C@@H](CCNc1nc(Nc2cnn(C3CCN(C)CC3)c2)ncc1Cl)N1CCCC1=O [Example 157] |
| 300 to 600 nM | 100 to 500 nM | – | Cc1nn(C2CCN(C3COC3)CC2)cc1Nc1ncc(C(F)(F)F)c(NCCCN2CCCCC2=O)n1 [Example 33] |
| > 600 nM | > 500 nM | – | Cc1nn(CCCN2CCOCC2)cc1Nc1ncc(Cl)c(NCCCN2CCOCCC2=O)n1 [Example 135] |
| – | 100 to 500 nM | 300 to 600 nM | CCN1CCC(n2cc(Nc3ncc(Cl)c(NCCCN4CCCCC4=O)n3)c(C)n2)CC1 [Example 58] |
| 100 to 300 nM | > 500 nM | – | Cc1nn(C2CCN(C(C)C)CC2)cc1Nc1ncc(Cl)c(NCCCN2CCCOCC2=O)n1 [Example 110] |
| 100 to 300 nM | 100 to 500 nM | – | Cc1nn(CCN2CCOCC2)cc1Nc1ncc(C(F)(F)F)c(NCCCN2CCCCCC2=O)n1 [Example 98] |
| > 600 nM | > 500 nM | – | Cc1nn(C2CCN(C)CC2)cc1Nc1ncc(C2CC2)c(NCCCN2CCCOCC2=O)n1 [Example 111] |
| – | 1 to 25 nM | 100 to 300 nM | [2H]C([2H])([2H])N1CCC(n2cc(Nc3ncc(C(F)(F)F)c(NCCCN4CCCCC4=O)n3)c(C)n2)CC1 [Example 31] |
